The nature of series [1]: Mouse PK test (cassette dosing). The conditions noted are these: male, ICR; for Tmax: mouse plasma, time to reach maximum plasma concentration, oral 1 mg/kg; for MRT / clearance: plasma, mouse, intravenous 0.1 mg/kg; for MRT: mean residence time; for clearance: total clearance, read-out: CL total (converted). The class given is in vivo. On the procedure: As the mouse, 8-week-old male ICR mice (Japan SLC, Inc.) were used. They were fed on a solid commercially available diet (CE-2, CLEA Japan, Inc.) and allowed to freely ingest tap water as the drinking water. An intravenous administration solution for the mice was prepared by weighing a test compound, dissolving same in dimethylacetamide (DMA) (Wako Pure Chemical Industries, Ltd.), adding the same volume of 1,3-butanediol (Wako Pure Chemical Industries, Ltd.) and mixing by stirring to give a DMA:1,3-butanediol (1:1, v/v) solution. An oral administration solution was prepared by weighing a test compound, pulverizing same in an agate mortar, and gradually adding 0.5 w/v % aqueous methylcellulose solution to give a suspension. For intravenous administration, the solution was administered into femoral vein of the mice at 0.1 mg/mL/kg (salt converted to free form). For oral administration, the suspension was administered to the mice at 1 mg/5 mL/kg (salt converted to free form). The cassette dosing method was used for the both administration routes, and the test compound was administered in the following manner.
In the case of intravenous administration, blood samples were collected from the tail vein at 5, 10, 15, 30 min, 1, 2, 4, 8 hr after administration, an anticoagulation treatment with heparin sodium (Shimizu Pharmaceutical Co., Ltd.) was performed, and plasma was collected after centrifugation and subjected to the measurement of drug concentration. In the case of oral administration, blood samples were collected from the tail vein at 15, 30 min, 1, 2, 4, 8 hr after administration, an anticoagulation treatment with heparin sodium was performed, and plasma was collected after centrifugation and subjected to the measurement of drug concentration.
All drug concentrations were measured by LC-MS/MS analysis. For a pharmacokinetics test, the plasma (5 μL) was placed in a tube, acetonitrile (115 μL) containing internal standard solution was added and they were mixed on a vortex mixer. Thereafter, the mixture was centrifuged (5000 rpm, 5 min, 4° C.). The supernatant (100 μL) after centrifugation was added to 10 mmol/L ammonium formate (100 μL) added earlier and mixed therewith. This sample was injected to LC/MS/MS. […] MS/MS used was AB Sciex TQ5500-MPX (Applied Biosystems).
Tmax: time to reach maximum plasma concentration
iv: intravenous administration
CL total: total clearance

For a further series, the target named is T1, MDR1 (Homo sapiens, UniProt P08183).
T1 construct: expressed in transfected cells
T1 sequence (P08183 whole entry): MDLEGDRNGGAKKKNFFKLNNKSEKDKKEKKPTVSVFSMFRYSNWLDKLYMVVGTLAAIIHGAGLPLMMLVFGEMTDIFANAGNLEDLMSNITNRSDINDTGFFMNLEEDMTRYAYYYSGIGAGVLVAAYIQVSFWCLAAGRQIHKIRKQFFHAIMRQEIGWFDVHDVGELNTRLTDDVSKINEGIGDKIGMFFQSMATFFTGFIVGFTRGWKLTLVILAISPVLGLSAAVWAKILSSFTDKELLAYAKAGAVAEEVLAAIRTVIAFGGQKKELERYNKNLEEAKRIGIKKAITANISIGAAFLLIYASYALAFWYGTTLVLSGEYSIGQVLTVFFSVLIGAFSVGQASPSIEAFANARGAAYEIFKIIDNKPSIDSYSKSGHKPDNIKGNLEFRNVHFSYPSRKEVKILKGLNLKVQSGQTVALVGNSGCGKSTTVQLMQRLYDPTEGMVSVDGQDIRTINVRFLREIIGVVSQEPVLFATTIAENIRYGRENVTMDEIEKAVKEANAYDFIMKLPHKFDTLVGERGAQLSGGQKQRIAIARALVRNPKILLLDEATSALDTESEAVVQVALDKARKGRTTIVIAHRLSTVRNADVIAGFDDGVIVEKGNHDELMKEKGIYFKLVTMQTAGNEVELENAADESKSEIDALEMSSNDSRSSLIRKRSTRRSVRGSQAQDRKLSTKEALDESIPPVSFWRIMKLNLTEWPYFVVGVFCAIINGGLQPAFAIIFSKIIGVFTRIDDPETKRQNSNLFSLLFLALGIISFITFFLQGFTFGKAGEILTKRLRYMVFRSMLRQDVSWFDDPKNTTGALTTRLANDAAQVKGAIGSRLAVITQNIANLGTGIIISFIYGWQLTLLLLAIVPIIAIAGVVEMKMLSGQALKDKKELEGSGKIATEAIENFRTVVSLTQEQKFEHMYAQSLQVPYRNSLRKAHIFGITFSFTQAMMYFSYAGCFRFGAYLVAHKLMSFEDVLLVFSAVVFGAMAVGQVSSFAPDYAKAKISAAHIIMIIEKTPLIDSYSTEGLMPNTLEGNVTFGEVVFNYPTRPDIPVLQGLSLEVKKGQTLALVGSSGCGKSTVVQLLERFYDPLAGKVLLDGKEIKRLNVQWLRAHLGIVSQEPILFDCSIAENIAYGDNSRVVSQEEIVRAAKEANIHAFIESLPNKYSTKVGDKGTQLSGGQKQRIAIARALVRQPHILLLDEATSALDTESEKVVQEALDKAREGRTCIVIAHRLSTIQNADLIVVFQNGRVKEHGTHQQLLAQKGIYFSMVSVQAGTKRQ
The series can be described thus: MDR1 membrane permeability test. Type of series: in vitro ADME. The conditions noted are these: pH 7.4, efflux ratio (ER), Papp B to A / A to B, human MDR1-expressing LLC-PK1 cells, read-out: MDR1 substrate screening 1 μM (MDRSUB1)/Ratio (NUMBER). A digest of the protocol:
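Human MDR1-expressing LLC-PK1 cells were grown for 3 days on 96-well polyethylene terephthalate Transwell supports (0.4 μm pores, 0.143 cm^2) seeded at 3.45×10^4 cells/well. After a 30 min preincubation in M199 medium with 10 mmol/L HEPES and 1% BSA (pH 7.4), drug was added apically or basolaterally. After 1 hr at 37° C, the opposite side was sampled and analyzed by LC-MS/MS. Efflux ratio was calculated from Papp B to A versus A to B.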

The next series concerns Male ICR mice. The series can be described thus: Mouse defecation experiment. Type of series: in vivo. To be noted: mean±standard error. On the procedure: Mouse Defecation Experiment
Male ICR mice (6-7 weeks old) were used after an acclimation period for about 1 week. A test drug (1 mg/kg or 3 mg/kg) was suspended in 0.5% methylcellulose solution and orally administered at a volume of 10 mL/kg, and the number of feces 2 hr later was counted. Only 0.5% methylcellulose was administered to a solvent administration group.

In general, Tmax refers to the time from dosing to the highest level. In general, MRT refers to the average time that molecules of a dose stay in the body. In the case of `Cc1nn(C)cc1-c1ccc(Cc2cc3c(=O)n([C@H]4CCOC[C@@H]4O)cnc3c(C)c2C)cn1` [Example 5, 1,5-anhydro-2,3-dideoxy-3-(6-((6-(1,3-dimethyl-1H-pyrazol-4-yl)pyridin-3-yl)methyl)-7,8-dimethyl-4-oxoquinazolin-3(4H)-yl)-L-threo-pentitol], in series [1], the Tmax was 0.7 h, the MRT was 1.2 h and the clearance was 7.45 mL/min/kg. Also, the efflux ratio at 1 hr, 1 μM at MDR1 came out at 15. Also, the “number of feces 2 hr later” value with Male ICR mice (1 mg/kg orally) was found to be 5.6 ± 1.0. For the same compound, the “number of feces 2 hr later” value in the series with Male ICR mice (3 mg/kg orally) turned out to be 8.4 ± 2.6.

In the case of `Cc1c(Cc2ccc(C(=O)NC[C@H]3CCCO3)c(F)c2)cc2c(=O)n([C@H]3CCOC[C@@H]3O)cnc2c1C` [Example 81, 1,5-anhydro-2,3-dideoxy-3-(6-(3-fluoro-4-(((2R)-tetrahydrofuran-2-ylmethyl)carbamoyl)benzyl)-7,8-dimethyl-4-oxoquinazolin-3(4H)-yl)-L-threo-pentitol], in series [1], the Tmax worked out at 0.5 h, the MRT came to 0.5 h and the clearance was 72.2 mL/min/kg. Besides, the efflux ratio at 1 hr, 1 μM on MDR1 was 8.6.

With `COCCNC(=O)c1ccc(Cc2cc3c(=O)n([C@H]4CCOC[C@@H]4O)cnc3c(C)c2C)cc1F` [Example 66, 1,5-anhydro-2,3-dideoxy-3-(6-(3-fluoro-4-((2-methoxyethyl)carbamoyl)benzyl)-7,8-dimethyl-4-oxoquinazolin-3(4H)-yl)-L-threo-pentitol], in series [1], the Tmax stood at 0.7 h, the MRT was found to be 0.8 h and the clearance was 26.6 mL/min/kg. Moreover, on MDR1, the efflux ratio at 1 hr, 1 μM amounted to 7. For the same compound, the “number of feces 2 hr later” value in the series with Male ICR mice (1 mg/kg orally) turned out to be 9.3 ± 1.2.

Turning to `CNC(=O)c1ccc(Cc2cc3c(=O)n([C@H]4CCOC[C@@H]4O)cnc3c(C)c2C)cc1F` [Example 3, 1,5-anhydro-2,3-dideoxy-3-(6-(3-fluoro-4-(methylcarbamoyl)benzyl)-7,8-dimethyl-4-oxoquinazolin-3(4H)-yl)-L-threo-pentitol], in series [1], the Tmax was 1.7 h, the MRT turned out to be 1.9 h and the clearance is 10.2 mL/min/kg. The efflux ratio at 1 hr, 1 μM on MDR1 was found to be 6. Further, the “number of feces 2 hr later” value in the series on Male ICR mice (1 mg/kg orally) was 14.0 ± 1.0.

Take `Cc1c(Cc2ccc(-c3cn(C)nn3)nc2)cc2c(=O)n([C@H]3CCOC[C@@H]3O)cnc2c1C` [Example 2, 1,5-anhydro-2,3-dideoxy-3-(7,8-dimethyl-6-((6-(1-methyl-1H-1,2,3-triazol-4-yl)pyridin-3-yl)methyl)-4-oxoquinazolin-3(4H)-yl)-L-threo-pentitol]: in series [1], the Tmax turned out to be 1 h, the MRT stood at 1 h and the clearance is 10.9 mL/min/kg. The efflux ratio at 1 hr, 1 μM on MDR1 stood at 18. In addition, the “number of feces 2 hr later” value in the series on Male ICR mice (1 mg/kg orally) was 5.0 ± 0.7. In the series with Male ICR mice (3 mg/kg orally), the “number of feces 2 hr later” value amounted to 11.3 ± 0.6.

Take `Cc1c(Cc2ccc(-c3cnn(C)c3)nc2)cc2c(=O)n([C@H]3CCOC[C@@H]3O)cnc2c1C` [Example 6, 1,5-anhydro-2,3-dideoxy-3-(7,8-dimethyl-6-((6-(1-methyl-1H-pyrazol-4-yl)pyridin-3-yl)methyl)-4-oxoquinazolin-3(4H)-yl)-L-threo-pentitol]: in series [1], the Tmax worked out at 1.7 h, the MRT was 1.4 h and the clearance is 4.55 mL/min/kg. In addition, on MDR1, the efflux ratio at 1 hr, 1 μM turned out to be 11. Also, the “number of feces 2 hr later” value in the series with Male ICR mice (1 mg/kg orally) was found to be 7.2 ± 1.8. The “number of feces 2 hr later” value in the series with Male ICR mice (3 mg/kg orally) turned out to be 8.2 ± 1.0.

On to `CNC(=O)c1ccc(Cc2cc3c(=O)n([C@H]4CCOC[C@@H]4O)nnc3c(Cl)c2C)cc1F` [Example 19, 1,5-anhydro-3-(8-chloro-6-(3-fluoro-4-(methylcarbamoyl)benzyl)-7-methyl-4-oxo-1,2,3-benzotriazin-3(4H)-yl)-2,3-dideoxy-L-threo-pentitol], for which, in series [1], the Tmax came to 1.7 h, the MRT came to 2.5 h and the clearance was 4.57 mL/min/kg. Further, at MDR1, the efflux ratio at 1 hr, 1 μM came to 4.6. Further, in the series on Male ICR mice (1 mg/kg orally), the “number of feces 2 hr later” value is 12.6 ± 1.2.
